Experimental data: patent US8802713B2, “3-alkoxy-1-phenylpyrazole derivatives and pesticides” (Kumiai Chemical Industry Co., Ltd., priority 2007, dated 2014)
Read-outs that look alike come from different tables or passages of the source.

Experiments:
diamondback moth = test: Insecticidal test on diamondback moth; type: in vivo; details: Plutella xylostella, 144 h
Experimental: A wettable powder prepared in accordance with Formulation Example 2 was diluted with water to a concentration of an active ingredient of 500 ppm. Cabbage leaves were dipped in this solution and dried in air and then put in a plastic cup having a capacity of 60 mL. 10 second-instar larvae of diamondback moth were released in the cup and the cup was lidded. Then, the cup was placed in a thermostatic chamber at 25° C. for 6 days, and dead moths were counted for calculation of the mortality by Equation 2. The test was carried out by one series system.

two-spotted spider mites = test: Miticidal test on two-spotted spider mites (seedling dip); type: in vivo, Tetranvchus urticae; details: Glycine max, 312 h, read-out: protective value
Experimental: A wettable powder prepared in accordance with Formulation Example 2 was diluted with water to a concentration of an active ingredient of 500 ppm. Soybean seedlings which had been inoculated with imago two-spotted spider mites were dipped in the solution and dried in air. The treated soybean seedlings were placed in a thermostatic chamber at 25° C. for 13 days, and the number of live mites were assessed for calculation of the protective value by Equation 1. The test was carried out by one series system.

cotton bollworm = test: Insecticidal test on cotton bollworm; type: in vivo; details: Helicoverpa armigera, 144 h
Experimental: A wettable powder prepared in accordance with Formulation Example 2 was diluted with water to a concentration of an active ingredient of 500 ppm. Cabbage leaves were dipped in this solution and dried in air and then put in a plastic cup having a capacity of 60 mL. Five hatched larvae of cotton bollworm were released in the cup, and the cup was lidded and placed in a thermostatic chamber at 25° C. for 6 days, and the number of dead larvae were assessed for calculation of the mortality by Equation 2. The test was carried out by two series system.

brown rice planthopper = test: Insecticidal test on brown rice planthopper; type: in vivo; details: 144 h
Experimental: A wettable powder prepared in accordance with Formulation Example 2 was diluted with water to a concentration of an active ingredient of 500 ppm. Rice sprouts were dipped in this solution and put in a plastic cup having a capacity of 60 mL. Ten third-instar larvae of brown rice planthopper were released in the cup, the cup was lidded and placed in a thermostatic chamber at 25° C. for 6 days, and the number of dead larvae were counted for calculation of the mortality by Equation 2. The test was carried out by one series system.

cotton aphid = test: Insecticidal test on cotton aphid (seedling dip); type: in vivo; details: Aphis gossypii, in Cucumis sativus, 72 h
Experimental: A wettable powder prepared in accordance with Formulation Example 2 was diluted with water to a concentration of an active ingredient of 500 ppm. Cucumber seedlings which had been inoculated with larvae of cotton aphid were dipped in this solution and dried in air. The treated cucumber seedlings were placed in a thermostatic chamber at 25° C. for 3 days, and the live insects were counted for calculation of the mortality by Equation 2. The test was carried out by one series system.

[1] = 500 ppm active ingredient, soybean seedlings with imago mites dipped, 25° C., 13 days
[2] = 500 ppm active ingredient, cabbage leaves dipped, second-instar larvae, 25° C., 6 days, read-out: mortality
[3] = 500 ppm active ingredient, cabbage leaves dipped, hatched larvae, 25° C., 6 days, read-out: mortality

CC(=O)Nc1cc(OCC(F)(F)OC(F)(F)C(F)(F)OC(F)(F)F)nn1-c1cc([S+]([O-])CC(F)(F)F)c(C)cc1F (stereo not shown) [1-375, 5-acetylamino-3-[2,2-difluoro-2-{2-trifluoromethoxy-(1,1,2,2-tetrafluoroethoxy)}ethoxy]-1-{2-fluoro-4-methyl-5-(2,2,2-trifluoroethylsulfinyl)phenyl}pyrazole]
≥ 90%: mortality at 500 ppm (diamondback moth; in Brassica oleracea) | pest or weed control at 500 ppm (two-spotted spider mites; [1]) | mortality at 500 ppm (cotton bollworm; in Brassica oleracea)

C#CCNc1cc(OC(F)(F)C(F)OC(F)(F)C(F)(F)C(F)(F)F)nn1-c1cc([S+]([O-])CC(F)(F)F)c(C)cc1F (stereo not shown) [1-358, 1-{2-fluoro-4-methyl-5-(2,2,2-trifluoroethylsulfinyl)phenyl}-5-(2-propynylamino)-3-{1,1,2-trifluoro-2-(heptafluoropropoxy)ethoxy}pyrazole]
≥ 90%: mortality at 500 ppm (diamondback moth; [2]) | mortality at 500 ppm (cotton bollworm; [3])

CC(=O)Nc1cc(OC(F)(F)C(F)OC(F)(F)C(F)(F)C(F)(F)F)nn1-c1cc([S+]([O-])CC(F)(F)F)c(C)cc1F (stereo not shown) [1-371, 5-acetylamino-1-{2-fluoro-4-methyl-5-(2,2,2-trifluoroethylsulfinyl)phenyl}-3-{1,1,2-trifluoro-2-(heptafluoropropoxy)ethoxy}pyrazole]
≥ 90%: mortality at 500 ppm (diamondback moth; [2]) | pest or weed control at 500 ppm (two-spotted spider mites) | mortality at 500 ppm (cotton bollworm; [3])

CC(=O)Nc1cc(OC(F)(F)C(F)OC(F)(F)C(F)(F)C(F)(F)F)nn1-c1cc(SCC(F)(F)F)c(C)cc1F (stereo not shown) [1-370, 5-acetylamino-1-{2-fluoro-4-methyl-5-(2,2,2-trifluoroethylthio)phenyl}-3-{1,1,2-trifluoro-2-(heptafluoropropoxy)ethoxy}pyrazole]
≥ 90%: mortality at 500 ppm (diamondback moth; [2]) | pest or weed control at 500 ppm (two-spotted spider mites) | mortality at 500 ppm (cotton bollworm; [3])

CNc1cc(OC(F)(F)C(F)C(F)(F)F)nn1-c1cc(SCC(F)(F)F)c(C)cc1F (stereo not shown) [1-186, 1-{2-fluoro-4-methyl-5-(2,2,2-trifluoroethylthio)phenyl}-3-(1,1,2,3,3,3-hexafluoropropoxy)-5-methylaminopyrazole]
≥ 90%: mortality at 500 ppm (brown rice planthopper) | mortality at 500 ppm (diamondback moth; in Brassica oleracea) | pest or weed control at 500 ppm (two-spotted spider mites; [1]) | mortality at 500 ppm (cotton aphid)

Cc1cc(F)c(-n2nc(OC(F)(F)C(F)OC(F)(F)F)cc2CF)cc1SCC(F)(F)F (stereo not shown) [1-1579, 1-{2-fluoro-4-methyl-5-(2,2,2-trifluoroethylthio)phenyl}-5-fluoromethyl-3-{1,1,2-trifluoro-2-(trifluoromethoxy)ethoxy}pyrazole]
≥ 90%: mortality at 500 ppm (brown rice planthopper) | mortality at 500 ppm (diamondback moth; in Brassica oleracea) | pest or weed control at 500 ppm (two-spotted spider mites; [1]) | mortality at 500 ppm (cotton aphid)

Cc1cc(F)c(-n2nc(OC(F)(F)C(F)OC(F)(F)F)cc2C#N)cc1SCC(F)(F)F (stereo not shown) [1-668, 5-cyano-1-{2-fluoro-4-methyl-5-(2,2,2-trifluoroethylthio)phenyl}-3-{1,1,2-trifluoro-2-(trifluoromethoxy)ethoxy}pyrazole]
≥ 90%: mortality at 500 ppm (brown rice planthopper) | mortality at 500 ppm (diamondback moth; in Brassica oleracea) | pest or weed control at 500 ppm (two-spotted spider mites; [1]) | mortality at 500 ppm (cotton aphid)

CC(=O)Nc1cc(OCC(F)(F)C(F)(F)C(F)(F)C(F)(F)F)nn1-c1cc(SCC(F)(F)F)c(C)cc1F [1-77, 5-acetylamino-1-{2-fluoro-4-methyl-5-(2,2,2-trifluoroethylthio)phenyl}-3-(2,2,3,3,4,4,5,5,5-nonafluoropentyloxy)pyrazole]
≥ 90%: mortality at 500 ppm (brown rice planthopper) | mortality at 500 ppm (diamondback moth; [2]) | pest or weed control at 500 ppm (two-spotted spider mites) | mortality at 500 ppm (cotton bollworm; [3])

CC(=O)Nc1cc(OC(F)(F)C(F)(F)C(F)(F)C(F)(F)C(F)(F)F)nn1-c1cc(SCC(F)(F)F)c(C)cc1F [1-488, 5-acetylamino-1-{2-fluoro-4-methyl-5-(2,2,2-trifluoroethylthio)phenyl}-3-(1,1,2,2,3,3,4,4,5,5,5-undecafluoropentyloxy)pyrazole]
≥ 90%: mortality at 500 ppm (diamondback moth; [2]) | mortality at 500 ppm (cotton bollworm; [3])

COc1cc(OC(F)(F)C(F)OC(F)(F)F)nn1-c1cc(SCC(F)(F)F)c(C)cc1F (stereo not shown) [1-794, 1-{2-fluoro-4-methyl-5-(2,2,2-trifluoroethylthio)phenyl}-5-methoxy-3-{1,1,2-trifluoro-2-(trifluoromethoxy)ethoxy}pyrazole]
≥ 90%: mortality at 500 ppm (brown rice planthopper) | mortality at 500 ppm (diamondback moth; in Brassica oleracea) | pest or weed control at 500 ppm (two-spotted spider mites; [1]) | mortality at 500 ppm (cotton aphid)

Cc1cc(F)c(-n2nc(OCC(F)(F)C(F)(F)F)cc2C#N)cc1SCC(F)(F)F [1-133, 5-cyano-1-{2-fluoro-4-methyl-5-(2,2,2-trifluoroethylthio)phenyl}-3-(2,2,3,3,3-pentafluoropropoxy)pyrazole]
≥ 90%: mortality at 500 ppm (brown rice planthopper) | mortality at 500 ppm (diamondback moth; in Brassica oleracea) | pest or weed control at 500 ppm (two-spotted spider mites; [1]) | mortality at 500 ppm (cotton aphid)

CC(=O)Nc1cc(OC(F)(F)C(F)(F)C(F)(F)F)nn1-c1cc([S+]([O-])CC(F)(F)F)c(C)cc1F (stereo not shown) [1-268, 5-acetylamino-1-{2-fluoro-4-methyl-5-(2,2,2-trifluoroethylsulfinyl)phenyl}-3-(1,1,2,2,3,3,3-heptafluoropropoxy)pyrazole]
≥ 90%: mortality at 500 ppm (diamondback moth; [2]) | pest or weed control at 500 ppm (two-spotted spider mites) | mortality at 500 ppm (cotton bollworm; [3])

Cc1cc(F)c(-n2nc(OC(F)(F)C(F)OC(F)(F)F)cc2C(F)F)cc1SCC(F)(F)F (stereo not shown) [1-1531, 5-difluoromethyl-1-{2-fluoro-4-methyl-5-(2,2,2-trifluoroethylthio)phenyl}-3-{1,1,2-trifluoro-2-(trifluoromethoxy)ethoxy}pyrazole]
≥ 90%: mortality at 500 ppm (brown rice planthopper) | mortality at 500 ppm (diamondback moth; in Brassica oleracea) | pest or weed control at 500 ppm (two-spotted spider mites; [1]) | mortality at 500 ppm (cotton aphid)

CC(=O)Nc1cc(OCC(F)(F)C(F)(F)F)nn1-c1cc([S+]([O-])CC(F)(F)Cl)c(C)cc1F (stereo not shown) [1-178, 5-acetylamino-1-{2-fluoro-4-methyl-5-(2-chloro-2,2-difluoroethylsulfinyl)phenyl}-3-(2,2,3,3,3-pentafluoropropoxy)pyrazole]
≥ 90%: mortality at 500 ppm (brown rice planthopper) | mortality at 500 ppm (diamondback moth; [2]) | mortality at 500 ppm (cotton bollworm; [3])

CC(=O)Nc1cc(OCC(F)(F)OC(F)(F)C(F)(F)OC(F)(F)F)nn1-c1cc(SCC(F)(F)F)c(C)cc1F [1-374, 5-acetylamino-3-[2,2-difluoro-2-{2-trifluoromethoxy-(1,1,2,2-tetrafluoroethoxy)}ethoxy]-1-{2-fluoro-4-methyl-5-(2,2,2-trifluoroethylthio)phenyl}pyrazole]
≥ 90%: mortality at 500 ppm (diamondback moth; in Brassica oleracea) | pest or weed control at 500 ppm (two-spotted spider mites; [1]) | mortality at 500 ppm (cotton bollworm; in Brassica oleracea)

Cc1cc(F)c(-n2nc(OCC(F)(F)C(F)(F)F)cc2NC(=O)C(F)(F)F)cc1SCC(F)(F)F [1-29, 1-{2-fluoro-4-methyl-5-(2,2,2-trifluoroethylthio)phenyl}-3-(2,2,3,3,3-pentafluoropropoxy)-5-trifluoroacetylaminopyrazole]
≥ 90%: mortality at 500 ppm (brown rice planthopper) | mortality at 500 ppm (diamondback moth; in Brassica oleracea) | pest or weed control at 500 ppm (two-spotted spider mites; [1]) | mortality at 500 ppm (cotton aphid)

Cc1cc(F)c(-n2nc(OC(F)(F)C(F)C(F)(F)F)cc2Cl)cc1[S+]([O-])CC(F)(F)F (stereo not shown) [1-254, 5-chloro 1-{2-fluoro-4-methyl-5-(2,2,2-trifluoroethylsulfinyl)phenyl}-3-(1,1,2,3,3,3-hexafluoropropoxy)pyrazole]
≥ 90%: mortality at 500 ppm (brown rice planthopper) | pest or weed control at 500 ppm (two-spotted spider mites; [1]) | mortality at 500 ppm (cotton aphid)

CC(=O)Nc1cc(OC(F)(F)C(F)(F)C(F)(F)C(F)(F)C(F)(F)F)nn1-c1cc([S+]([O-])CC(F)(F)F)c(C)cc1F (stereo not shown) [1-489, 5-acetylamino-1-{2-fluoro-4-methyl-5-(2,2,2-trifluoroethylsulfinyl)phenyl}-3-(1,1,2,2,3,3,4,4,5,5,5-undecafluoropentyloxy)pyrazole]
≥ 90%: mortality at 500 ppm (diamondback moth; [2]) | pest or weed control at 500 ppm (two-spotted spider mites) | mortality at 500 ppm (cotton bollworm; [3])

Cc1cc(F)c(-n2nc(OCC(F)(F)C(F)(F)F)cc2C)cc1SCC(F)(F)F [1-91, 1-{2-fluoro-4-methyl-5-(2,2,2-trifluoroethylthio)phenyl}-5-methyl-3-(2,2,3,3,3-pentafluoropropoxy)pyrazole]
≥ 90%: mortality at 500 ppm (brown rice planthopper) | mortality at 500 ppm (diamondback moth; in Brassica oleracea) | pest or weed control at 500 ppm (two-spotted spider mites; [1]) | mortality at 500 ppm (cotton aphid)
